Test results as given in article PMC4499186, “Structure of the stationary phase survival protein YuiC from B.subtilis” (BMC Structural Biology, 2015).

Molecular target: T1, YuiC (degraded K32-E218) (Bacillus subtilis, UniProt O32108)
T1 construct: mature protein K32-E218, signal peptide removed, E. coli Rosetta 2 (DE3), His-tag cut by TEV leaving GIDPFT; partially proteolysed at or close to R52; residues 72-217 modelled; domain-swapped dimer, site formed by both chains
T1 sequence (O32108 32-218): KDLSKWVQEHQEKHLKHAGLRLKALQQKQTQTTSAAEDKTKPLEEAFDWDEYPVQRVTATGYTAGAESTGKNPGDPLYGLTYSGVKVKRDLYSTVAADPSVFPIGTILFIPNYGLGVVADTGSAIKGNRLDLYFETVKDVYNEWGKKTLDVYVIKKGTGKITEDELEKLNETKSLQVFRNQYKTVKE
Assay: X-ray crystal structure, […] Å
Assay type: binding
Conditions: 5 mM NAG in crystallisation, pH 6.0; bound at -2 site, one per chain

SMILES: CC(=O)N[C@H]1C(O)O[C@H](CO)[C@@H](O)[C@@H]1O (stereo partly shown) [NAG, N-acetylglucosamine]
- X-ray crystal structure, 1.21 Å: Crystallisation of YuiC in the presence of NAG gives a structure with a single
